Measurements as given in ChEMBL document CHEMBL2157896, “Engineering pH-gated transitions for selective and efficient double-strand DNA photocleavage in hypoxic tumors” (J Med Chem, 2011).
The source made the active and inactive calls. The rule behind the calls is not given here.

Assays:
Nucleic Acid [1] = experiment: Induction of DNA cleavage in Escherichia coli pBR322 at 5 uM in pH 6.0 phosphate buffer measured after of UV irradiation; assay type: nucleic-acid assay
A-375 [2] = experiment: Drug uptake in human A375 cells at 30 uM incubated for 30 mins by differential interference contrast microscopy; assay type: ADME, cell-based; conditions: a-375, 0.5 h
Nucleic Acid [3] = experiment: Induction of DNA damage in Escherichia coli pBR322 at 5 uM in pH 6.0 phosphate buffer measured after of UV irradiation; assay type: nucleic-acid assay
A-375 [4] = experiment: Toxicity in human A375 cells at <10 uM under dark condition incubated for 72 hrs by MTT assay; assay type: cell-based; conditions: a-375, 72 h
A-375 [5] = experiment: Phototoxicity in human A375 cells incubated for 72 hrs exposed to UV light for 10 mins by MTT assay; assay type: functional
Nucleic Acid [6] = experiment: Induction of DNA cleavage in Escherichia coli pBR322 at 10 uM in pH 8.0 phosphate buffer measured after of UV irradiation; assay type: nucleic-acid assay
A-375 [7] = experiment: Drug uptake in human A375 cells at 30 uM incubated for 30 mins by fluorescence microscopy; assay type: ADME, cell-based; conditions: a-375, 0.5 h
Nucleic Acid [8] = experiment: Induction of DNA cleavage in Escherichia coli pBR322 at 5 uM in pH 7.0 phosphate buffer measured after of UV irradiation; assay type: nucleic-acid assay
Nucleic Acid [9] = experiment: Induction of DNA cleavage in Escherichia coli pBR322 at 10 uM in pH 7.0 phosphate buffer measured after of UV irradiation; assay type: nucleic-acid assay
Nucleic Acid [10] = experiment: Induction of DNA cleavage in Escherichia coli pBR322 assessed as form3/form2 ratio after UV irradiation; assay type: nucleic-acid assay
Nucleic Acid [11] = experiment: Induction of photochemical DNA cleavage in Escherichia coli pBR322 assessed as disappearance of supercoiled DNA at 15 uM in pH 8.0 phosphate buffer after 10 mins of UV irradiation; assay type: nucleic-acid assay
Nucleic Acid [12] = experiment: Induction of photochemical DNA cleavage in Escherichia coli pBR322 assessed as supercoiled DNA level at 10 uM in pH 6.0 phosphate buffer measured after UV irradiation; assay type: nucleic-acid assay
Nucleic Acid [13] = experiment: Induction of photochemical DNA cleavage in Escherichia coli pBR322 assessed as disappearance of supercoiled DNA at 15 uM in pH 6.0 phosphate buffer after 10 mins of UV irradiation; assay type: nucleic-acid assay
Nucleic Acid [14] = experiment: Induction of DNA cleavage in Escherichia coli pBR322 at 10 uM in pH 6.0 phosphate buffer measured after of UV irradiation; assay type: nucleic-acid assay
Nucleic Acid [15] = experiment: Induction of photochemical DNA cleavage in Escherichia coli pBR322 assessed as supercoiled DNA level at 15 uM in pH 6.0 phosphate buffer measured after 30 secs of UV irradiation; assay type: nucleic-acid assay
Nucleic Acid [16] = experiment: Induction of DNA cleavage in Escherichia coli pBR322 assessed as form3/form2 ratio at 15 uM at pH 6 to 9 after 10 mins of UV irradiation; assay type: nucleic-acid assay
Nucleic Acid [17] = experiment: Induction of photochemical DNA cleavage in Escherichia coli pBR322 assessed as disappearance of supercoiled DNA at 15 uM in pH 7.0 phosphate buffer after 10 mins of UV irradiation; assay type: nucleic-acid assay
Nucleic Acid [18] = experiment: Induction of DNA cleavage in Escherichia coli pBR322 at 15 uM in pH 6.0 phosphate buffer measured after of UV irradiation; assay type: nucleic-acid assay

Row | Structure (SMILES) | Activity (Nucleic Acid [1]) | Drug uptake (A-375 [2]) | Activity (Nucleic Acid [3]) | Activity (A-375 [4]) | CC50 (A-375 [5]) | Activity (Nucleic Acid [6]) | Drug uptake (A-375 [7]) | Activity (Nucleic Acid [8]) | Activity (Nucleic Acid [9]) | Activity (Nucleic Acid [10]) | Activity (Nucleic Acid [11]) | Activity (Nucleic Acid [12]) | Activity (Nucleic Acid [13]) | Activity (Nucleic Acid [14]) | Activity (Nucleic Acid [15]) | Ratio (Nucleic Acid [16]) | Activity (Nucleic Acid [17]) | Activity (Nucleic Acid [18])
1 | NCCCC[C@H](N)C(=O)NCCCC[C@H](N)C(=O)Nc1ccc(C#Cc2c(F)c(F)nc(F)c2F)c(C#Cc2c(F)c(F)nc(F)c2F)c1.O=C(O)C(F)(F)F | 17% | Active | 92% | Non-toxic | Active | Active | Active | inactive | Active |  |  |  |  |  |  |  |  | 
2 | CCN[C@H]1CO[C@@H](O[C@H]2[C@H](O[C@H]3C#C/C=C\C#C[C@]4(O)CC(=O)C(NC(=O)OC)=C3/C4=C\CSSSC)O[C@H](C)[C@@H](NO[C@H]3C[C@H](O)[C@H](SC(=O)c4c(C)c(I)c(O[C@@H]5O[C@@H](C)[C@H](O)[C@@H](OC)[C@H]5O)c(OC)c4OC)[C@@H](C)O3)[C@@H]2O)C[C@@H]1OC |  |  |  |  |  |  |  |  |  | Active |  |  |  |  |  |  |  | 
3 | NCCCC[C@H](NC(=O)[C@@H](N)CCCCN)C(=O)Nc1ccc(C#Cc2c(F)c(F)nc(F)c2F)c(C#Cc2c(F)c(F)nc(F)c2F)c1.O=C(O)C(F)(F)F | 13% | Active | 77% | Non-toxic | Active | Active | Active | inactive | Active |  |  |  |  |  |  |  |  | 
4 | NCCCC[C@H](NC(=O)[C@@H](N)CCCCN)C(=O)Nc1ccc(C#Cc2c(F)c(F)nc(F)c2F)cc1.O=C(O)C(F)(F)F | 32% | Active |  | Non-toxic | Active |  | Active |  | > 61% |  | Active | inactive | Active | 136% | Active | 1 | Active | 155%
